Reference: US6737383B1, “Herbicidal oxadiazolidines” (priority 1999, dated 2004)

Columns and labels:
[1] = tested on: cocklebur; experiment: Test B pre/postemergence cocklebur; type: in vivo, Xanthium strumarium
Summary of the method: (§1)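 Response is a visual 0-to-10 score relative to untreated plants, where 0 means no effect and 10 means complete control, taken twelve to sixteen days after application. Treatments went onto soil at planting and onto foliage of 1- to 4-leaf plants, using a surfactant-containing non-phytotoxic solvent.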

[2] = tested on: morningglory; experiment: Test B pre/postemergence morningglory; type: in vivo, Ipomoea hederacea
Summary of the method: as §1

[3] = tested on: soybean; experiment: Test B pre/postemergence soybean; type: in vivo, Glycine max
Summary of the method: as §1

[4] = tested on: velvetleaf; experiment: Test B pre/postemergence velvetleaf; type: in vivo, Abutilon theophrasti
Summary of the method: as §1

[5] = tested on: smallflower flatsedge; experiment: Test B flood test smallflower flatsedge; type: in vivo, Cyperus difformis
Summary of the method: (§2)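 Plants were grown to the 2-leaf stage before treatment with test chemical, then held in a greenhouse for twelve to sixteen days. Injury was visually rated against untreated controls on a 0–10 scale, where 0 is no effect and 10 is complete control.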

[6] = tested on: wild oat; experiment: Test B pre/postemergence wild oat; type: in vivo, Avena fatua
Summary of the method: as §1

[7] = tested on: bamyardgrass; experiment: Test B flood test barnyardgrass; type: in vivo, Echinochloa crus-galli
Summary of the method: as §2

[8] = tested on: surinam grass; experiment: Test B pre/postemergence surinam grass; type: in vivo, Brachiaria decumbens
Summary of the method: as §1

[9] = tested on: crabgrass; experiment: Test B pre/postemergence crabgrass; type: in vivo, Digitaria sanguinalis
Summary of the method: as §1

[10] = tested on: giant foxtail; experiment: Test B pre/postemergence giant foxtail; type: in vivo, Setaria faberii
Summary of the method: as §1

[11] = tested on: wheat; experiment: Test B pre/postemergence wheat; type: in vivo, Triticum aestivum
Summary of the method: as §1

[12] = tested on: bedstraw; experiment: Test B pre/postemergence bedstraw; type: in vivo, Galium aparine; details: Postemergence, 10 is complete control
Summary of the method: as §1

[13] = tested on: blackgrass; experiment: Test B pre/postemergence blackgrass; type: in vivo, Alopecurus myosuroides
Summary of the method: as §1

[14] = tested on: rape; experiment: Test B pre/postemergence rape; type: in vivo, Brassica napus
Summary of the method: as §1

[15] = tested on: corn; experiment: Test B pre/postemergence corn; type: in vivo, Zea mays
Summary of the method: as §1

[16] = tested on: duck salad; experiment: Test B flood test duck salad; type: in vivo, Heteranthera limosa
Summary of the method: as §2

[17] = Postemergence, Rate 62 g/ha, scale 0 to 10, 0 is no effect, 10 is complete control
[18] = Postemergence, Rate 125 g/ha, scale of 0 to 10 where 0 is no effect and 10 is complete control
[19] = Postemergence, Rate 250 g/ha, scale of 0 to 10, 0 is no effect, 10 is complete control
[20] = Postemergence, Rate 500 g/ha, scale of 0 to 10 where 0 is no effect and 10 is complete control
[21] = Preemergence, Rate 62 g/ha, scale of 0 to 10 where 0 is no effect and 10 is complete control
[22] = Preemergence, Rate 125 g/ha, scale of 0 to 10 where 0 is no effect and 10 is complete control
[23] = Preemergence, Rate 250 g/ha, scale 0 to 10 (0 no effect, 10 complete control)
[24] = Preemergence, Rate 500 g/ha, scale of 0 to 10 where 0 is no effect and 10 is complete control
[25] = Rate 62 g/ha, flood test species, Pre-emergence, visual evaluation after twelve to sixteen days
[26] = Rate 125 g/ha, under heading Pre-emergence, flood test species, visual evaluation after twelve to sixteen days
[27] = Rate 250 g/ha, Pre-emergence (flood test species), scale 0 to 10, 0 is no effect, 10 is complete control
[28] = Rate 500 g/ha, Pre-emergence section of Table B, 0 to 10 scale (0 no effect, 10 complete control)

CC(C)N(C(=O)n1oc(=O)n(Cc2nnc(Cl)s2)c1=O)c1ccc(F)cc1F [Compound 645]
Plant response rating, Cocklebur [1, 17]: 0
Cocklebur plant response rating [1, 18]: 0
Cocklebur plant response rating [1, 19]: 3
Plant response rating, Cocklebur [1, 20]: 7
Cocklebur plant response rating [1, 21]: 0
Cocklebur plant response rating [1, 22]: 0
Plant response rating, Cocklebur [1, 23]: 0
Plant response rating, Cocklebur [1, 24]: 0
Plant response rating, Morningglory [2, 17]: 0
Morningglory plant response rating [2, 18]: 0
Morningglory plant response rating [2, 19]: 1
Plant response rating, Morningglory [2, 20]: 3
Morningglory plant response rating [2, 21]: 0
Morningglory plant response rating [2, 22]: 0
Plant response rating, Morningglory [2, 23]: 0
Plant response rating, Morningglory [2, 24]: 0
Plant response rating, Soybean [3, 17]: 1
Soybean plant response rating [3, 18]: 1
Soybean plant response rating [3, 21]: 0
Soybean plant response rating [3, 22]: 0
Plant response rating, Soybean [3, 23]: 0
Plant response rating, Soybean [3, 24]: 0
Plant response rating, Velvetleaf [4, 17]: 0
Velvetleaf plant response rating [4, 18]: 0
Velvetleaf plant response rating [4, 21]: 0
Velvetleaf plant response rating [4, 22]: 0
Plant response rating, Velvetleaf [4, 23]: 0
Plant response rating, Velvetleaf [4, 24]: 0
Plant response rating, S. Flatsedge (0 to 10 scale, 0 is no effect, 10 is complete control) [5, 25]: 0
S. Flatsedge plant response rating (0 to 10 scale, 0 is no effect, 10 is complete control) [5, 26]: 0
S. Flatsedge plant response rating [5, 27]: 0
S. Flatsedge plant response rating [5, 28]: 0
Plant response rating, Wild oats [6, 17]: 0
Wild oats plant response rating [6, 18]: 0
Wild oats plant response rating [6, 21]: 0
Wild oats plant response rating [6, 22]: 0
Plant response rating, Wild oats [6, 23]: 0
Plant response rating, Wild oats [6, 24]: 0
Plant response rating, Barnyardgrass (0 to 10 scale, 0 is no effect, 10 is complete control) [7, 25]: 0
Barnyardgrass plant response rating (0 to 10 scale, 0 is no effect, 10 is complete control) [7, 26]: 0
Barnyardgrass plant response rating [7, 27]: 0
Barnyardgrass plant response rating [7, 28]: 0
Plant response rating, B. signalgrass [8, 17]: 0
Plant response rating, B. signalgrass [8, 18]: 0
B. signalgrass plant response rating [8, 19]: 0
Plant response rating, B. signalgrass [8, 20]: 0
B. signalgrass plant response rating [8, 21]: 0
B. signalgrass plant response rating [8, 22]: 0
Plant response rating, B. signalgrass [8, 23]: 0
Plant response rating, B. signalgrass [8, 24]: 0
Plant response rating, Crabgrass [9, 17]: 0
Crabgrass plant response rating [9, 18]: 0
Crabgrass plant response rating [9, 19]: 0
Plant response rating, Crabgrass [9, 20]: 3
Crabgrass plant response rating [9, 21]: 2
Crabgrass plant response rating [9, 22]: 3
Plant response rating, Crabgrass [9, 23]: 4
Plant response rating, Crabgrass [9, 24]: 5
Plant response rating, Giant foxtail [10, 17]: 0
Giant foxtail plant response rating [10, 18]: 0
Giant foxtail plant response rating [10, 19]: 0
Plant response rating, Giant foxtail [10, 20]: 2
Giant foxtail plant response rating [10, 21]: 1
Giant foxtail plant response rating [10, 22]: 2
Plant response rating, Giant foxtail [10, 23]: 5
Plant response rating, Giant foxtail [10, 24]: 7
Plant response rating, Wheat [11, 17]: 0
Wheat plant response rating [11, 18]: 0
Wheat plant response rating [11, 21]: 0
Wheat plant response rating [11, 22]: 0
Plant response rating, Wheat [11, 23]: 0
Plant response rating, Wheat [11, 24]: 0
Plant response rating, Bedstraw ([12]; Rate 62 g/ha, scale 0 to 10, 0 is no effect): 0
Bedstraw plant response rating ([12]; Rate 250 g/ha, scale of 0 to 10, 0 is no effect): 0
Plant response rating, Blackgrass [13, 17]: 0
Blackgrass plant response rating [13, 18]: 0
Blackgrass plant response rating [13, 19]: 0
Plant response rating, Blackgrass [13, 20]: 0
Blackgrass plant response rating [13, 21]: 0
Blackgrass plant response rating [13, 22]: 0
Plant response rating, Blackgrass [13, 23]: 0
Plant response rating, Blackgrass [13, 24]: 0
Plant response rating, Rape [14, 17]: 0
Rape plant response rating [14, 18]: 0
Plant response rating, Rape [14, 20]: 0
Rape plant response rating [14, 21]: 0
Rape plant response rating [14, 22]: 0
Plant response rating, Rape [14, 23]: 0
Plant response rating, Rape [14, 24]: 0
Plant response rating, Corn [15, 17]: 0
Corn plant response rating [15, 18]: 0
Corn plant response rating [15, 19]: 0
Plant response rating, Corn [15, 20]: 0
Corn plant response rating [15, 21]: 0
Corn plant response rating [15, 22]: 0
Plant response rating, Corn [15, 23]: 0
Plant response rating, Corn [15, 24]: 0
Plant response rating, Ducksalad (0 to 10 scale, 0 is no effect, 10 is complete control) [16, 25]: 0
Ducksalad plant response rating (0 to 10 scale, 0 is no effect, 10 is complete control) [16, 26]: 0
Ducksalad plant response rating [16, 27]: 0
Ducksalad plant response rating [16, 28]: 0
